# Values joined by “and” are separate entries in the source; they are usually repeats but may differ in a detail not shown here. Identical values can stand only once. Toxic doses and inconclusive results are not listed.
# Tested on: BDF1 mice, P388 leukemia ip, median survival T/C
# Experiment: NCI In Vivo Anticancer Drug Screen. Data for tumor model P388 Leukemia (intraperitoneal) in B6D2F1 (BDF1) mice
# Settings: endpoint: median survival time, higher = longer survival
# Summary of the method: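 Vehicle-dosed animals serve as the reference; survival of compound-dosed, tumour-implanted mice is divided by it.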
# [1] = dose: 100.0 mg/kg/injection, schedule: Q01DX009 (ip), vehicle: Klucel (hydroxypropylcellulose) (HPC)
# [2] = dose: 200.0 mg/kg/injection, schedule: Q01DX009 (ip), vehicle: Klucel (hydroxypropylcellulose) (HPC)
# [3] = dose: 20.0 mg/kg/injection, schedule: Q01DX009 (ip), vehicle: saline
# [4] = dose: 25.0 mg/kg/injection, schedule: Q01DX009 (ip), vehicle: saline
# [5] = dose: 50.0 mg/kg/injection, schedule: Q01DX009 (ip), vehicle: saline
compound,measurement,setting,value
CC(C)(C)C1C2N1C1(c3ccccc3)OC2(c2ccccc2)c2ccccc21 (stereo not drawn),T/C,"dose: 50.0 mg/kg/injection, schedule: Q01DX009 (ip), vehicle: Klucel (hydroxypropylcellulose) (HPC)",106 % of control
same,T/C,[1],100 % of control
same,T/C,[2],104 % of control
O=C(NO)c1ccc([N+](=O)[O-])cc1,T/C,"dose: 240.0 mg/kg/injection, schedule: Q01DX010 (ip), vehicle: water",92 % of control
same,T/C,"dose: 270.0 mg/kg/injection, schedule: Q01DX010 (ip), vehicle: water",90 % of control and 113 % of control
same,T/C,"dose: 360.0 mg/kg/injection, schedule: Q01DX010 (ip), vehicle: water",123 % of control
O=C(OC(c1ccccc1)c1ccccc1)C(CSC(c1ccccc1)(c1ccccc1)c1ccccc1)NC(c1ccccc1)(c1ccccc1)c1ccccc1 (stereo not drawn),T/C,"dose: 100.0 mg/kg/injection, schedule: Q04DX003 (ip), vehicle: Klucel (hydroxypropylcellulose) (HPC)",100 % of control
same,T/C,"dose: 200.0 mg/kg/injection, schedule: Q04DX003 (ip), vehicle: Klucel (hydroxypropylcellulose) (HPC)",109 % of control
same,T/C,"dose: 400.0 mg/kg/injection, schedule: Q04DX003 (ip), vehicle: Klucel (hydroxypropylcellulose) (HPC)",104 % of control
CCN(CC)CCCC(C)Nc1ncnc2oc(C)c(C)c12 (stereo not drawn),T/C,"dose: 6.25 mg/kg/injection, schedule: Q01DX009 (ip), vehicle: saline with Tween-80",95 % of control
same,T/C,"dose: 12.5 mg/kg/injection, schedule: Q01DX009 (ip), vehicle: saline with Tween-80",100 % of control
same,T/C,"dose: 25.0 mg/kg/injection, schedule: Q01DX009 (ip), vehicle: saline with Tween-80",100 % of control
OC1OC(COC(c2ccccc2)(c2ccccc2)c2ccccc2)C(O)C(O)C1O (stereo not drawn),T/C,"dose: 10.0 mg/kg/injection, schedule: Q01DX009 (ip), vehicle: saline",123 % of control
same,T/C,"dose: 12.5 mg/kg/injection, schedule: Q01DX009 (ip), vehicle: saline",88 % of control
same,T/C,[3],108 % of control
same,T/C,[4],104 % of control and 115 % of control
same,T/C,"dose: 40.0 mg/kg/injection, schedule: Q01DX009 (ip), vehicle: saline",114 % of control
same,T/C,[5],101 % of control and 123 % of control
same,T/C,"dose: 80.0 mg/kg/injection, schedule: Q01DX009 (ip), vehicle: saline",107 % of control
same,T/C,"dose: 100.0 mg/kg/injection, schedule: Q01DX009 (ip), vehicle: saline",90 % of control and 104 % of control and 105 % of control
same,T/C,"dose: 100.0 mg/kg/injection, schedule: Q01DX009 (ip), vehicle: water",100 % of control
same,T/C,"dose: 100.0 mg/kg/injection, schedule: Q04DX003 (ip), vehicle: saline with Tween-80",110 % of control
same,T/C,"dose: 100.0 mg/kg/injection, schedule: Q04DX003 (ip), vehicle: saline",90 % of control
same,T/C,"dose: 100.0 mg/kg/injection, schedule: Q04DX003 (ip), vehicle: water",105 % of control
same,T/C,"dose: 200.0 mg/kg/injection, schedule: Q01DX009 (ip), vehicle: water",105 % of control
same,T/C,"dose: 200.0 mg/kg/injection, schedule: Q04DX003 (ip), vehicle: saline with Tween-80",105 % of control
same,T/C,"dose: 200.0 mg/kg/injection, schedule: Q04DX003 (ip), vehicle: saline",95 % of control
same,T/C,"dose: 200.0 mg/kg/injection, schedule: Q04DX003 (ip), vehicle: water",110 % of control
same,T/C,"dose: 400.0 mg/kg/injection, schedule: Q01DX009 (ip), vehicle: water",105 % of control
same,T/C,"dose: 400.0 mg/kg/injection, schedule: Q04DX003 (ip), vehicle: saline with Tween-80",110 % of control
same,T/C,"dose: 400.0 mg/kg/injection, schedule: Q04DX003 (ip), vehicle: water",110 % of control
CC(=O)OCCC/C(=C/c1cc2ccccc2c2ccccc12)[N+](=O)[O-],T/C,[1],115 % of control
same,T/C,[2],120 % of control
CN(C)CCCN1c2ccccc2Sc2ccc(C(F)(F)F)cc21,T/C,"dose: 6.25 mg/kg/injection, schedule: Q01DX009 (ip), vehicle: saline",100 % of control
same,T/C,"dose: 6.25 mg/kg/injection, schedule: Q04DX003 (ip), vehicle: saline with Tween-80",108 % of control
same,T/C,"dose: 8.9 mg/kg/injection, schedule: Q01DX009 (ip), vehicle: saline",118 % of control
same,T/C,"dose: 9.37 mg/kg/injection, schedule: Q01DX009 (ip), vehicle: saline",110 % of control
same,T/C,"dose: 12.5 mg/kg/injection, schedule: Q04DX003 (ip), vehicle: saline with Tween-80",113 % of control
same,T/C,"dose: 12.5 mg/kg/injection, schedule: Q04DX003 (ip), vehicle: saline",108 % of control
same,T/C,"dose: 13.4 mg/kg/injection, schedule: Q01DX009 (ip), vehicle: saline",109 % of control
same,T/C,"dose: 16.5 mg/kg/injection, schedule: Q01DX009 (ip), vehicle: saline",122 % of control
same,T/C,[3],118 % of control
same,T/C,[4],100 % of control
same,T/C,"dose: 25.0 mg/kg/injection, schedule: Q04DX003 (ip), vehicle: saline with Tween-80",113 % of control
same,T/C,"dose: 25.0 mg/kg/injection, schedule: Q04DX003 (ip), vehicle: saline",109 % of control
same,T/C,"dose: 37.5 mg/kg/injection, schedule: Q01DX009 (ip), vehicle: saline",100 % of control
same,T/C,"dose: 37.5 mg/kg/injection, schedule: Q04DX003 (ip), vehicle: saline",161 % of control
same,T/C,[5],95 % of control
